Test results published in patent US10905687B2, “Substituted piperazines as ROR-gamma modulators” (ESCALIER BIOSCIENCES B.V., priority 2016, dated 2021).
Where a name gives a salt, the structure may show the parent alone.

Assays:
RORγt = RORγt (Homo sapiens (Human), UniProt P51449); test: Gal4 ligand binding assay (RORγt Gal fusion assay); format: cell-based; conditions: RORγt inverse agonists in RORγt Gal fusion assay
Description: Human RORγ ligand binding assay was performed in 96-well format. The N-terminal DNA binding domains (DBD) of the native RORγ and RORγt receptors have been substituted with that of the yeast GAL4-DBD and RORγ is expressed constitutively in the cell line. Both agonist and inverse agonist activity can be detected. 10 mM compound stocks were diluted serially 1:3 with DMSO and further diluted with provided media to generate 10 titration points from 60 μM to 3 nM. These treatment conditions were added to the plates as 2× media in 100 μL volume. Each plate includes a positive control with 10 titration points as well as 6 negative control wells with vehicle only. Reporter cells were rapidly thawed and added to the plates in 100 μL volume. The plates were incubated for 24 hrs in a 37° C. humidified 5% CO2 incubator. Media was removed before the addition of room temperature Detection Substrate. After 5 minute incubation, the luminescence was quantified on a luminescence plate reader.

IMQ-induced psoriasis = conditions: topical pre-treatment daily for 5 days, 4 hours before IMQ; Compound A at 0.3, 1, 3%
Description: Compounds of Formula (I), (Ia), or (Ib) were tested in the imiquimod (IMQ) induced psoriasis model in mice to determine their in vivo efficacy as topical agents. Female Balb/c mice of age 8-10 weeks were allowed to acclimatize for at least seven days prior to experiment initiation. During this period, the mice were observed daily for clinical signs. Animals were randomly assigned to studies group on Day zero (DO) before anaesthetization and back hair was completely removed by using a depilatory cream. One group of animals served as a naïve control (untreated). […] The severity of psoriasis was monitored and graded daily using a modified human scoring system, the Psoriasis Area and Severity Index (PASI), which consists of measures for ear and skin erythema, scaling and thickness. At the end of the study period, 24 hours after the final dosing, all animals were humanely sacrificed, and blind histopathological scoring was performed by pathologist on H&E stained tissue sections of the ear and back.

RORγt, sequence (P51449 269-508): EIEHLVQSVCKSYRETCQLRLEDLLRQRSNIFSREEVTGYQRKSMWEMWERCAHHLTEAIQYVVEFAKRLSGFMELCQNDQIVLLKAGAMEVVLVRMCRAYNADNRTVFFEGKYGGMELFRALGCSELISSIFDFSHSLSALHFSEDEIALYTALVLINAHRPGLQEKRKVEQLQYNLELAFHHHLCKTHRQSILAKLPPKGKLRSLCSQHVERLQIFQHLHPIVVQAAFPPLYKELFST

Compound | IC50 (RORγt) [µM] | also measured
O=C(O)CC1CN(Cc2ccncc2)CCN1Cc1ccc(-c2ccc(C(O)(C(F)(F)F)C(F)(F)F)cc2)cc1 (centres unmarked) [Compound 13, 2-(1-((4′-(1,1,1,3,3,3-hexafluoro-2-hydroxypropan-2-yl)-[1,1′-biphenyl]-4-yl)methyl)-4-(pyridin-4-ylmethyl)piperazin-2-yl)acetic acid] | 1 to 10 | 
CC(C)NC(=O)C1CN(Cc2ccc(-c3ccc(C(O)(C(F)(F)F)C(F)(F)F)cc3)cc2)CCN1Cc1ccncc1 (centres unmarked) [Compound 28, 4-((4′-(1,1,1,3,3,3-hexafluoro-2-hydroxypropan-2-yl)-[1,1′-biphenyl]-4-yl)methyl)-N-isopropyl-1-(pyridin-4-ylmethyl)piperazine-2-car oxamide] | 1 to 10 | 
O=C(O)C1CN(Cc2ccncc2)CCN1Cc1ccc(-c2ccc(C(O)(C(F)(F)F)C(F)(F)F)cc2)cc1 (centres unmarked) [Compound 12, 1-((4′-(1,1,1,3,3,3-hexafluoro-2-hydroxypropan-2-yl)-[1,1′-biphenyl]-4-yl)methyl)-4-(pyridin-4-ylmethyl)piperazine-2-carboxylic acid] | 1 to 10 | 
NCCOC(=O)CC1CN(Cc2ccc(-c3ccc(C(O)(C(F)(F)F)C(F)(F)F)cc3)cc2)CCN1Cc1ccncc1 (centres unmarked) [Compound 33, 2-aminoethyl 2-(4-((4′-(1,1,1,3,3,3-hexafluoro-2-hydroxypropan-2-yl)-[1,1′-biphenyl]-4-yl)methyl)-1-(pyridin-4-ylmethyl)piperazin-2-yl)acetate hydrochloride] | 1 to 10 | 
C[C@H]1C[C@H]2[C@@H]3CCC4=CC(=O)C=C[C@]4(C)[C@@]3(F)[C@@H](O)C[C@]2(C)[C@@]1(O)C(=O)CCl [clobetasol] |  | ear and back skin thickness (IMQ-induced psoriasis): significantly decreased; histopathology scoring (IMQ-induced psoriasis): significantly decreased; psoriasis score (IMQ-induced psoriasis): significantly decreased
Cc1cc(CN2CCN(Cc3ccncc3)[C@@H](CC(=O)O)C2)ccc1-c1ccc(C(O)(C(F)(F)F)C(F)(F)F)cc1 [Compound 50, (S)-2-(4-((4′-(1,1,1,3,3,3-hexafluoro-2-hydroxypropan-2-yl)-2-methyl-[1,1′-biphenyl]-4-yl)methyl)-1-(pyridin-4-ylmethyl)piperazin-2-yl)acetic acid] | 1 to 10 | 
